Measured values as given in patent US20260325685A1, “Radiopharmaceutical Compositions Targeting Carbonic Anhydrase IX and Uses Thereof” (RayzeBio, Inc., priority 2023, published 2026).
Where two headings read alike, the source gives them in different places.

Assays:
human CA-XII = target: T1, human CA-XII (Homo sapiens, UniProt O43570); experiment: Surface Plasmon Resonance (SPR) binding kinetics to recombinant human CA-XII (Biacore 8K, single-cycle kinetics, 1:1 binding model); settings: pH 7.4, read-out: CAXII KD
T1 construct: purchased Creative BioMart CA12-261H
How it was run: (§1)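 First, ligand at 10 μg/mL was captured on streptavidin to 1200-1800 RU, with 180 s injection for CA-IX and 75 s for CA-XII. Next, compound (100-0.39 nM, 9 levels) in PBS-P+ with 1% DMSO was injected. Association lasted 120 s and dissociation 1200 s at 25° C.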

human CA-IX = target: T2, human CA-IX (Homo sapiens, UniProt Q16790); experiment: Surface Plasmon Resonance (SPR) binding kinetics to recombinant human CA-IX (Biacore 8K, single-cycle kinetics, 1:1 binding model); settings: for Kd: SPR, 25° C., pH 7.4, read-out: CAIX KD
T2 construct: purchased Acro CA9-H82E3
How it was run: as §1

T1 sequence (O43570 25-354): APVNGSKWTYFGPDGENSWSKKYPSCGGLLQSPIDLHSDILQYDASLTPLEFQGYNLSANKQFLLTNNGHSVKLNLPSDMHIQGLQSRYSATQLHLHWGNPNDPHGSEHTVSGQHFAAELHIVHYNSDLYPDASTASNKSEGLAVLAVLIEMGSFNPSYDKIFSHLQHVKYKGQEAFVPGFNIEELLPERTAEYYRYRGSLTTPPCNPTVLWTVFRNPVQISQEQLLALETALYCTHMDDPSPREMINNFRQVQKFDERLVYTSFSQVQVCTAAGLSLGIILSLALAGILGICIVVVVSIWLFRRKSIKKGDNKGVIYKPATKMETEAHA

| SMILES | Kd (human CA-XII; Chelated Metal: Lu-175, 25° C.) [nM] | Kd (human CA-IX; Chelated Metal: Lu-175) [nM] | Kd (human CA-XII; Chelated Metal: None, 25° C.) [nM] | Kd (human CA-IX; Chelated Metal: None) [nM] | Ratio (CAXII/CAIX) (human CA-IX; KD ratio CAXII/CAIX, Chelated Metal: None) |
| --- | --- | --- | --- | --- | --- |
| CC(CCC(=O)N[C@@H](CC(=O)N[C@@H](CC(=O)N[C@@H](CCCn1cc(C23CC(C(=O)Nc4nnc(S(N)(=O)=O)s4)(C2)C3)nn1)C(=O)NCCOCCOCCNC(=O)CN1CCN(CC(=O)O)CCN(CC(=O)O)CCN(CC(=O)O)CC1)C(=O)O)C(=O)O)(c1ccc(O)cc1)c1ccc(O)cc1.[Lu+3] [Compound 100.2] | > 10 | 1 to 2.5 |  |  |  |
| N[C@@H](CC(=O)N[C@@H](CCC(=O)N1CCN(C(=O)CN2CCN(CC(=O)O)CCN(CC(=O)O)CCN(CC(=O)O)CC2)C[C@H]1C(=O)NCCn1cc(C23CCC(C(=O)Nc4nnc(S(N)(=O)=O)s4)(CC2)CC3)nn1)C(=O)O)C(=O)O.[Lu+3] [Compound 109.60] | 1 to 2.5 | < 1 |  |  |  |
| NS(=O)(=O)c1nnc(NC(=O)C23CC(c4cn(CCNC(=O)[C@@H]5CN(C(=O)CN6CCN(CC(=O)O)CCN(CC(=O)O)CCN(CC(=O)O)CC6)CCN5C(=O)C[C@H](NC(=O)C[C@H](NC(=O)Cc5ccc(S(F)(F)(F)(F)F)cc5)C(=O)O)C(=O)O)nn4)(C2)C3)s1.[Lu+3] [Compound 109.20] | 2.5 to 10 | < 1 |  |  |  |
| NS(=O)(=O)c1nnc(NC(=O)C23CC(c4cn(CCNC(=O)[C@@H]5CN(C(=O)CN6CCN(CC(=O)O)CCN(CC(=O)O)CCN(CC(=O)O)CC6)CCN5C(=O)C[C@H](NC(=O)C[C@H](NC(=O)c5cnc(C6CC6)nc5)C(=O)O)C(=O)O)nn4)(C2)C3)s1.[Lu+3] [Compound 109.23] | > 10 | 2.5 to 10 |  |  |  |
| NS(=O)(=O)c1c(F)c(F)c(S(=O)(=O)CCOCc2cn(CCCNC(=O)[C@@H]3CN(C(=O)CN4CCN(CC(=O)O)CCN(CC(=O)O)CCN(CC(=O)O)CC4)CCN3C(=O)CNC(=O)C3(C(=O)O)CCN(C(=O)CCCCc4ccc(O)cc4)CC3)nn2)c(NC2CCCCCCC2)c1F.[Lu+3] [Compound 107.45] | 2.5 to 10 | < 1 |  |  |  |
| NS(=O)(=O)c1nnc(NC(=O)C23CC(c4cn(C[C@H]5CN(C(=O)CN6CCN(CC(=O)O)CCN(CC(=O)O)CCN(CC(=O)O)CC6)CCN5C(=O)[C@@H]5COCCN5C(=O)CCc5n[nH]c6ccccc56)nn4)(C2)C3)s1.[Lu+3] [Compound 114.3] | > 10 | 1 to 2.5 |  |  |  |
| CC(CCC(=O)N[C@@H](CC(=O)N[C@@H](CC(=O)N1CCN(C(=O)CN2CCN(CC(=O)O)CCN(CC(=O)O)CCN(CC(=O)O)CC2)CC1C(=O)NCCn1cc(C23CCC(C(=O)Nc4nnc(S(N)(=O)=O)s4)(CC2)C3)nn1)C(=O)O)C(=O)O)(c1ccc(O)cc1)c1ccc(O)cc1.[Lu+3] (some centres unmarked) [Compound 107.1] | < 1 | < 1 |  |  |  |
| CC(CCCC(=O)N1CCC(C(N)=O)(C(=O)NCC(=O)NC2(C(=O)NCCn3cc(C45CCC(C(=O)Nc6nnc(S(N)(=O)=O)s6)(CC4)CC5)nn3)CCN(C(=O)CN3CCN(CC(=O)O)CCN(CC(=O)O)CCN(CC(=O)O)CC3)CC2)CC1)(c1ccc(O)cc1)c1ccc(O)cc1.[Lu+3] [Compound 117.6] | 1 to 2.5 | < 1 |  |  |  |
| NS(=O)(=O)c1nnc(NC(=O)C23CC(c4cn(CCNC(=O)[C@@H]5CN(C(=O)CN6CCN(CC(=O)O)CCN(CC(=O)O)CCN(CC(=O)O)CC6)CCN5C(=O)CNC(=O)C5(C(=O)O)CCN(C(=O)Cc6n[nH]c7ccccc67)CC5)nn4)(C2)C3)s1.[Lu+3] [Compound 112.6] | > 10 | 1 to 2.5 |  |  |  |
| CC(CCC(=O)N[C@@H](CC(=O)N[C@@H](CC(=O)N[C@@H](CCCCn1cc(C23CCC(C(=O)Nc4nnc(S(N)(=O)=O)s4)(CC2)C3)nn1)C(=O)N1CCN(C(=O)CN2CCN(CC(=O)O)CCN(CC(=O)O)CCN(CC(=O)O)CC2)CC1)C(=O)O)C(=O)O)(c1ccc(O)cc1)c1ccc(O)cc1.[Lu+3] [Compound 100.13] | < 1 | < 1 |  |  |  |
| CC(CCCC(=O)N1CCC(C(N)=O)(C(=O)NCC(=O)NC2CCN(C(=O)CCOCCOCCOCCOCCN(CCOCCOCCOCCOCCC(=O)N3CCC(NC(=O)CNC(=O)C4(C(N)=O)CCN(C(=O)CCCC(C)(c5ccc(O)cc5)c5ccc(O)cc5)CC4)C(C(=O)NCCn4cc(C56CC(C(=O)Nc7nnc(S(N)(=O)=O)s7)(C5)C6)nn4)C3)C(=O)CNC(=O)CN3CCN(CC(=O)O)CCN(CC(=O)O)CCN(CC(=O)O)CC3)CC2C(=O)NCCn2cc(C34CC(C(=O)Nc5nnc(S(N)(=O)=O)s5)(C3)C4)nn2)CC1)(c1ccc(O)cc1)c1ccc(O)cc1.[Lu+3] (centres unmarked) [Compound 131.7] | 1 to 2.5 | < 1 |  |  |  |
| CC(CCC(=O)N[C@@H](CC(=O)N[C@@H](CC(=O)N1CCN(C(=O)CN2CCN(CC(=O)O)CCN(CC(=O)O)CCN(CC(=O)O)CC2)C[C@H]1C(=O)NCCn1cc(C23CCC(C(=O)Nc4nnc(S(N)(=O)=O)s4)(CC2)C3)nn1)C(=O)O)C(=O)O)(c1ccc(O)cc1)c1ccc(O)cc1.[Lu+3] [Compound 107.2] | < 1 | < 1 |  |  |  |
| Cc1c(C(F)(F)F)n[nH]c1C(=O)N1CCC(C(=O)O)(C(=O)NCC(=O)N2CCN(C(=O)CN3CCN(CC(=O)O)CCN(CC(=O)O)CCN(CC(=O)O)CC3)C[C@H]2C(=O)NCCn2cc(C34CC(C(=O)Nc5nnc(S(N)(=O)=O)s5)(C3)C4)nn2)CC1.[Lu+3] [Compound 112.13] | > 10 | 1 to 2.5 |  |  |  |
| NS(=O)(=O)c1nnc(NC(=O)C23CC(c4cn(CCNC(=O)[C@@H]5CN(C(=O)CN6CCN(CC(=O)O)CCN(CC(=O)O)CCN(CC(=O)O)CC6)CCN5C(=O)C[C@H](NC(=O)C[C@H](NC(=O)Cn5nc(-c6ccc(O)cc6)c6ccc(O)cc65)C(=O)O)C(=O)O)nn4)(C2)C3)s1.[Lu+3] [Compound 109.34] | 2.5 to 10 | < 1 |  |  |  |
| NS(=O)(=O)c1nnc(NC(=O)C23CCC(c4cn(CCNC(=O)[C@@H]5CN(C(=O)CN6CCN(CC(=O)O)CCN(CC(=O)O)CCN(CC(=O)O)CC6)CCN5C(=O)CC[C@H](NC(=O)C[C@H](NC(=O)CCC5CCCCC5)C(=O)O)C(=O)O)nn4)(CC2)CC3)s1.[Lu+3] [Compound 109.44] | < 1 | < 1 |  |  |  |
| NS(=O)(=O)c1nnc(CC(=O)C23CC(c4cn(CCNC(=O)[C@H]5COCCN5C(=O)CC[C@H](NC(=O)[C@H](CCCCNC(=O)CN5CCN(CC(=O)O)CCN(CC(=O)O)CCN(CC(=O)O)CC5)NC(=O)CCC5CCCCC5)C(=O)O)nn4)(C2)C3)s1.[Lu+3] [Compound 118.1] | > 10 | 1 to 2.5 |  |  |  |
| CC(CCCC(=O)N1CCC(C(=O)O)(C(=O)NCC(=O)N[C@@H](CCCCn2cc(CCCC(=O)Nc3nnc(S(N)(=O)=O)s3)nn2)C(=O)NCCOCCOCCNC(=O)CN2CCN(CC(=O)O)CCN(CC(=O)O)CCN(CC(=O)O)CC2)CC1)(c1ccc(O)cc1)c1ccc(O)cc1.[Lu+3] [Compound 102.1] | > 10 | < 1 |  |  |  |
| NS(=O)(=O)c1nnc(NC(=O)C23CCC(c4cn(CCNC(=O)[C@@H]5CN(C(=O)CN6CCN(CC(=O)O)CCN(CC(=O)O)CCN(CC(=O)O)CC6)CCN5C(=O)CC[C@H](NC(=O)C[C@H](NC(=O)c5ccc(C6CC6)cc5)C(=O)O)C(=O)O)nn4)(CC2)CC3)s1.[Lu+3] [Compound 109.54] | < 1 | < 1 |  |  |  |
| CC(CCCC(=O)N1CCC(CN)(C(=O)NCC(=O)N2CCN(C(=O)CN3CCN(CC(=O)O)CCN(CC(=O)O)CCN(CC(=O)O)CC3)C[C@@H]2C(=O)NCCn2cc(C34CC(C(=O)Nc5nnc(S(N)(=O)=O)s5)(C3)C4)nn2)CC1)(c1ccc(O)cc1)c1ccc(O)cc1.[Lu+3] [Compound 107.51] | > 10 | 1 to 2.5 |  |  |  |
| CC1(C)CN(C(=O)CCCC(C)(c2ccc(O)cc2)c2ccc(O)cc2)[C@H](C(=O)N[C@@H](CC(=O)N2CCN(C(=O)CN3CCN(CC(=O)O)CCN(CC(=O)O)CCN(CC(=O)O)CC3)C[C@@H]2C(=O)NCCn2cc(C34CC(C(=O)Nc5nnc(S(N)(=O)=O)s5)(C3)C4)nn2)C(=O)O)CO1.[Lu+3] [Compound 107.32] | > 10 | < 1 |  |  |  |
| NS(=O)(=O)c1nnc(NC(=O)C23CCC(c4cn(CCNC(=O)[C@@H]5CN(C(=O)CN6CCN(CC(=O)O)CCN(CC(=O)O)CCN(CC(=O)O)CC6)CCN5C(=O)CC[C@H](NC(=O)C[C@H](NC(=O)c5coc(C(F)(F)F)n5)C(=O)O)C(=O)O)nn4)(CC2)CC3)s1.[Lu+3] [Compound 109.59] | < 1 | < 1 |  |  |  |
| CC(CCC(=O)N[C@@H](CC(=O)N[C@@H](CC(=O)N1CCN(C(=O)CN2CCN(CC(=O)O)CCN(CC(=O)O)CCN(CC(=O)O)CC2)C[C@H]1C(=O)NCCn1cc(C23CC(C(=O)Nc4nnc(S(N)(=O)=O)s4)(C2)C3)nn1)C(=O)O)C(=O)O)(c1ccc(O)cc1)c1ccc(O)cc1.[Lu+3] [Compound 107.38] | > 10 | < 1 |  |  |  |
| CC(CCCC(=O)N1CCC(C#N)(C(=O)NCC(=O)N2CCN(C(=O)CN3CCN(CC(=O)O)CCN(CC(=O)O)CCN(CC(=O)O)CC3)C[C@@H]2C(=O)NCCn2cc(C34CC(C(=O)Nc5nnc(S(N)(=O)=O)s5)(C3)C4)nn2)CC1)(c1ccc(O)cc1)c1ccc(O)cc1.[Lu+3] [Compound 107.31] | > 10 | 1 to 2.5 |  |  |  |
| CC(CCCC(=O)N1CCC(C(N)=O)(C(=O)NCC(=O)N[C@@H](CCCCn2cc(CCCC(=O)Nc3nnc(S(N)(=O)=O)s3)nn2)C(=O)NCCOCCOCCNC(=O)CN2CCN(CC(=O)O)CCN(CC(=O)O)CCN(CC(=O)O)CC2)CC1)(c1ccc(O)cc1)c1ccc(O)cc1 [Compound 102.3] |  |  | > 10 | < 1 | *** (10 < *** ≤ 50) |
| NS(=O)(=O)c1nnc(NC(=O)C23CC(c4cn(CCNC(=O)[C@@H]5CN(C(=O)CN6CCN(CC(=O)O)CCN(CC(=O)O)CCN(CC(=O)O)CC6)CCN5C(=O)C[C@H](NC(=O)C[C@H](NC(=O)CCCc5ccc(I)cc5)C(=O)O)C(=O)O)nn4)(C2)C3)s1.[Lu+3] [Compound 109.14] | 2.5 to 10 | < 1 |  |  |  |
| CC(CC(=O)N[C@@H](CC(=O)N[C@@H](CC(=O)N[C@@H](CCCCn1cc(C23CCC(C(=O)Nc4nnc(S(N)(=O)=O)s4)(CC2)C3)nn1)C(=O)NCCOCCOCCNC(=O)CN1CCN(CC(=O)O)CCN(CC(=O)O)CCN(CC(=O)O)CC1)C(=O)O)C(=O)O)(c1ccc(O)cc1)c1ccc(O)cc1.[Lu+3] [Compound 100.17] | < 1 | < 1 |  |  |  |
